These compounds were tested against T1, androgen receptor (AR) splicing variant AR-v7 (Homo sapiens, UniProt P10275) (assay: Degradation activity on androgen receptor splicing variant AR-v7 in 22RV1 cells (ELISA)). Details: AR-v7 degradation in 22RV1 cells, 48 h, class symbols.
T1 construct: The degradation activity of compounds on AR-v7 in 22RV1 cells; host or cells: 22RV1 cells
T1 sequence (P10275 1-644 isoform P10275-3): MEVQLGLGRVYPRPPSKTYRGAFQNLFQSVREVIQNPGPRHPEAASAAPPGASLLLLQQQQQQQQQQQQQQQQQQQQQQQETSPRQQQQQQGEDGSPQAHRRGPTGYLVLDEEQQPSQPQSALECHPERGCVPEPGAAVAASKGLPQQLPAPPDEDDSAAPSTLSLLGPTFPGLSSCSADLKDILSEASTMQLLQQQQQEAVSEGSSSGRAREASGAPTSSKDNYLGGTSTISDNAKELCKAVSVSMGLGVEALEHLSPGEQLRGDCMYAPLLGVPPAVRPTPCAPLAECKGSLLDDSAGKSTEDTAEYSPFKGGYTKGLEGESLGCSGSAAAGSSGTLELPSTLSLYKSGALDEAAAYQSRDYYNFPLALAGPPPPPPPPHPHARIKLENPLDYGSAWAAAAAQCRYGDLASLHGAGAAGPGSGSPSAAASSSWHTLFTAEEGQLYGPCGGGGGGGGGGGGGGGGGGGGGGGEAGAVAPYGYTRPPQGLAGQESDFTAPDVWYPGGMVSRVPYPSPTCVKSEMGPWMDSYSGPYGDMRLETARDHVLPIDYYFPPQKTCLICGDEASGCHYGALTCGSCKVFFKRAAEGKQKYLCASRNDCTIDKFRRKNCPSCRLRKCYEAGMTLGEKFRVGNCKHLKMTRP
Assay type: cell-based

| DC50 | SMILES |
| --- | --- |
| 11 to 100 nM | CN(C)[C@H]1CCN(c2nccc(COc3ccc(C(C)(C)c4ccc(O[C@H]5C[C@@H](Nc6ccc7c(c6)C(=O)N(C6CCC(=O)NC6=O)C7=O)C5)cc4)cc3)n2)C1 (some centres unmarked) [Example 238] |
| 11 to 100 nM | CC(C)(c1ccc(OCc2ccnc(N3CCN(CCO)CC3)n2)cc1)c1ccc(O[C@H]2C[C@@H](Nc3ccc4c(c3)C(=O)N(C3CCC(=O)NC3=O)C4=O)C2)cc1 (some centres unmarked) [Example 241, 2-(2,6-dioxopiperidin-3-yl)-5-(((1s,3s)-3-(4-(2-(4-((2-(4-(2-hydroxylethyl)piperazin-1-yl)pyrimidin-4-yl)methoxy)phenyl)propan-2-yl)phenoxy)cyclobutyl)amino)isoindolin-1,3-dione] |
| < 10 nM | CN1CC[C@@H](Oc2nccc(COc3ccc(C(C)(C)c4ccc(O[C@H]5C[C@@H](Nc6ccc7c(c6)C(=O)N(C6CCC(=O)NC6=O)C7=O)C5)cc4)cc3)n2)C1 (some centres unmarked) [Example 243] |
| 101 to 1000 nM | CC(C)(c1ccc(OCc2ccnc(NC#N)n2)cc1)c1ccc(O[C@H]2C[C@H](Nc3ccc4c(c3)C(=O)N(C3CCC(=O)NC3=O)C4=O)C2)cc1 (some centres unmarked) [Example 245, N-(4-((4-(2-(4-((1s,3s)-3-((2-(2,6-dioxopiperidin-3-yl)-1,3-dioxoisoindolin-5-yl)amino)cyclobutyloxy)phenyl)propan-2-yl)phenoxy)methyl)pyrimidin-2-yl)cyanamide] |
| 11 to 100 nM | CC(C)(c1ccc(Oc2nc(N3CC4(COC4)C3)ncc2F)cc1)c1ccc(O[C@H]2C[C@H](Nc3ccc4c(c3)C(=O)N(C3CCC(=O)NC3=O)C4=O)C2)cc1 (some centres unmarked) [Example 247] |
| 11 to 100 nM | Cc1noc(-c2nccc(COc3ccc(C(C)(C)c4ccc(O[C@H]5C[C@H](Nc6ccc7c(c6)C(=O)N(C6CCC(=O)NC6=O)C7=O)C5)cc4)cc3)n2)n1 (some centres unmarked) [Example 250] |
| 1000 to 5000 nM | CC(C)(c1ccc(OCc2ccnc(-c3ncno3)n2)cc1)c1ccc(O[C@H]2C[C@@H](Nc3ccc4c(c3)C(=O)N(C3CCC(=O)NC3=O)C4=O)C2)cc1 (some centres unmarked) [Example 252] |
| 11 to 100 nM | CC(C)(c1ccc(OCc2cccc(-n3cccn3)n2)cc1)c1ccc(O[C@H]2C[C@H](Nc3ccc4c(c3)C(=O)N(C3CCC(=O)NC3=O)C4=O)C2)cc1 (some centres unmarked) [Example 253] |
| 11 to 100 nM | Cc1nnc(-c2ccnc(Oc3ccc(C(C)(C)c4ccc(O[C@H]5C[C@H](Nc6ccc7c(c6)C(=O)N(C6CCC(=O)NC6=O)C7=O)C5)cc4)cc3)c2)o1 (some centres unmarked) [Example 257] |
| 11 to 100 nM | CC(C)(c1ccc(OCc2ccnc(N3C[C@@H]4C[C@H]3CN4)n2)cc1)c1ccc(O[C@H]2C[C@@H](Nc3ccc4c(c3)C(=O)N(C3CCC(=O)NC3=O)C4=O)C2)cc1 (stereo partly drawn) [Example 260, 5-(((1s,3s)-3-(4-(2-(4-((2-((1S,4S)-2,5-diazabicyclo[2.2.1]heptan-2-yl)pyrimidin-4-yl)methoxy)phenyl)propan-2-yl)phenoxy)cyclobutyl)amino)-2-(2,6-dioxopiperidin-3-yl)isoindolin-1,3-dione] |
| < 10 nM | CC(C)(c1ccc(Oc2cnc(C(O)C3CCC3)nc2)cc1)c1ccc(O[C@H]2C[C@H](Nc3ccc4c(c3)C(=O)N(C3CCC(=O)NC3=O)C4=O)C2)cc1 (some centres unmarked) [Example 261] |
| 11 to 100 nM | CC(C)(c1ccc(Oc2cnc(C(=O)C3CCC3)nc2)cc1)c1ccc(O[C@H]2C[C@H](Nc3ccc4c(c3)C(=O)N(C3CCC(=O)NC3=O)C4=O)C2)cc1 (some centres unmarked) [Example 262] |
| 11 to 100 nM | Cc1noc(-c2ncc(Oc3ccc(C(C)(C)c4ccc(O[C@H]5C[C@@H](Nc6ccc7c(c6)C(=O)N(C6CCC(=O)NC6=O)C7=O)C5)cc4)cc3)cn2)n1 (some centres unmarked) [Example 263] |
| 11 to 100 nM | CC(C)(c1ccc(Oc2cnc(C(F)(F)F)nc2)cc1)c1ccc(O[C@H]2C[C@H](Nc3ccc4c(c3)C(=O)N(C3CCC(=O)NC3=O)C4=O)C2)cc1 (some centres unmarked) [Example 264] |
| 11 to 100 nM | COC(=O)c1ncc(Oc2ccc(C(C)(C)c3ccc(O[C@H]4C[C@H](Nc5ccc6c(c5)C(=O)N(C5CCC(=O)NC5=O)C6=O)C4)cc3)cc2)cn1 (some centres unmarked) [Example 266, methyl 5-(4-(2-(4-((1r,3r)-3-((2-(2,6-dioxopiperidin-3-yl)-1,3-dioxoisoindolin-5-yl)amino)cyclobutyloxy)phenyl)propan-2-yl)phenoxy)pyrimidin-2-carboxylate] |
| 101 to 1000 nM | CC(C)(c1ccc(Oc2cnc(C(=O)O)nc2)cc1)c1ccc(O[C@H]2C[C@H](Nc3ccc4c(c3)C(=O)N(C3CCC(=O)NC3=O)C4=O)C2)cc1 (some centres unmarked) [Example 267, 5-(4-(2-(4-((1r,3r)-3-((2-(2,6-dioxopiperidin-3-yl)-1,3-dioxoisoindolin-5-yl)amino)cyclobutyloxy)phenyl)propan-2-yl)phenoxy)pyrimidin-2-carboxylic acid] |
| 101 to 1000 nM | CC1(CNc2nccc(COc3ccc(C(C)(C)c4ccc(O[C@H]5C[C@@H](Nc6ccc7c(c6)C(=O)N(C6CCC(=O)NC6=O)C7=O)C5)cc4)cc3)n2)COC1 (some centres unmarked) [Example 269] |
| 11 to 100 nM | Cc1noc(C)c1-c1nccc(COc2ccc(C(C)(C)c3ccc(O[C@H]4C[C@H](Nc5ccc6c(c5)C(=O)N(C5CCC(=O)NC5=O)C6=O)C4)cc3)cc2)n1 (some centres unmarked) [Example 271] |
| 11 to 100 nM | CC(C)(c1ccc(OCc2ccnc(-c3cncs3)n2)cc1)c1ccc(O[C@H]2C[C@H](Nc3ccc4c(c3)C(=O)N(C3CCC(=O)NC3=O)C4=O)C2)cc1 (some centres unmarked) [Example 272] |
| 11 to 100 nM | CC(C)(c1ccc(OCc2ccnc(-c3cc[nH]n3)n2)cc1)c1ccc(O[C@H]2C[C@@H](Nc3ccc4c(c3)C(=O)N(C3CCC(=O)NC3=O)C4=O)C2)cc1 (some centres unmarked) [Example 274] |
| 11 to 100 nM | Cc1nc(-c2cccc(COc3ccc(C(C)(C)c4ccc(O[C@H]5C[C@H](Nc6ccc7c(c6)C(=O)N(C6CCC(=O)NC6=O)C7=O)C5)cc4)cc3)n2)no1 (some centres unmarked) [Example 283] |
| 11 to 100 nM | CC(C)(c1ccc(OCc2nc(-n3nccn3)ccc2F)cc1)c1ccc(O[C@H]2C[C@H](Nc3ccc4c(c3)C(=O)N(C3CCC(=O)NC3=O)C4=O)C2)cc1 (some centres unmarked) [Example 284] |
| 11 to 100 nM | CC(C)(c1ccc(OCc2nc(-n3ccnn3)ccc2F)cc1)c1ccc(O[C@H]2C[C@H](Nc3ccc4c(c3)C(=O)N(C3CCC(=O)NC3=O)C4=O)C2)cc1 (some centres unmarked) [Example 285] |
| 11 to 100 nM | CC(C)(c1ccc(OCc2ccc(F)c(-n3ccnn3)n2)cc1)c1ccc(O[C@H]2C[C@H](Nc3ccc4c(c3)C(=O)N(C3CCC(=O)NC3=O)C4=O)C2)cc1 (some centres unmarked) [Example 286] |
| 11 to 100 nM | CC(C)(c1ccc(OCc2ccc(F)c(-n3nccn3)n2)cc1)c1ccc(O[C@H]2C[C@H](Nc3ccc4c(c3)C(=O)N(C3CCC(=O)NC3=O)C4=O)C2)cc1 (some centres unmarked) [Example 287] |
| 11 to 100 nM | Cc1nc(-c2nccc(Oc3ccc(C(C)(C)c4ccc(O[C@H]5C[C@@H](Nc6ccc7c(c6)C(=O)N(C6CCC(=O)NC6=O)C7=O)C5)cc4)cc3)n2)no1 (some centres unmarked) [Example 292] |
| < 10 nM | Cc1noc(-c2ncc(Oc3ccc(C4(c5ccc(O[C@H]6C[C@H](Nc7ccc8c(c7)C(=O)N(C7CCC(=O)NC7=O)C8=O)C6)cc5)CCCC4)cc3)cn2)n1 (some centres unmarked) [Example 297] |

Same assay, conditions: AR-v7 degradation in 22RV1 cells, 48 h, numeric values

| DC50 | SMILES |
| --- | --- |
| > 10000 nM | CC(=O)c1nccc(COc2ccc(C(C)(C)c3ccc(OCCCCCCCCOCC4CN(c5ccc6c(c5)C(=O)N(C5CCC(=O)NC5=O)C6=O)C4)cc3)cc2)n1 (centres unmarked) [Example 298] |
| > 10000 nM | CC(=O)c1nccc(COc2ccc(C(C)(C)c3ccc(OCCCCCCCCOCCN4CCN(c5ccc6c(c5)C(=O)N(C5CCC(=O)NC5=O)C6=O)CC4)cc3)cc2)n1 (centres unmarked) [Example 299, 5-(4-(2-((8-(4-(2-(4-((2-acetylpyrimidin-4-yl)methoxy)phenyl)propan-2-yl)phenoxy)octyl)oxy)ethyl)piperazin-1-yl)-2-(2,6-dioxopiperidin-3-yl)isoindolin-1,3-dione] |

Reference: US20250051347A1, “BIFUNCTIONAL CHIMERIC HETEROCYCLIC COMPOUND AND USE THEREOF AS ANDROGEN RECEPTOR DEGRADER” (Hinova Pharmaceuticals, Inc., priority 2021, published 2025)
